From the supplement of paper PMC9663587

How the values were obtained:
[1] = compound: T1, C=CC(=O)Nc1ccc(C(=O)Nc2[nH]nc3c2CN(C(=O)N[C@H](CN(C)C)c2ccccc2)C3(C)C)cc1 [YKL-5-124]; experiment: GR value, 72 h; higher = faster growth (1 = untreated, <0 = killing);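 further: breast cancer and non-malignant breast epithelial lines, nine half-log doses, viable cells counted by Hoechst and LIVE/DEAD dye imaging versus time-zero plates and DMSO controls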
[2] = compound: CN(C)C/C=C/C(=O)Nc1ccc(C(=O)N2CCC[C@@H](Nc3ncc(Cl)c(-c4c[nH]c5ccccc45)n3)C2)cc1 [THZ531]; experiment: as above
[3] = compound: CC1=C(N=C(N=C1N)[C@H](CC(=O)N)NC[C@@H](C(=O)N)N)C(=O)N[C@@H]([C@H](C2=CN=CN2)OC3C(C(C(C(O3)CO)O)O)OC4C(C(C(C(O4)CO)O)OC(=O)N)O)C(=O)N[C@H](C)[C@H]([C@H](C)C(=O)N[C@@H]([C@@H](C)O)C(=O)NCCC5=NC(=CS5)C6=NC(=CS6)C(=O)NCCC[S+](C)C)O [Bleomycin]; settings: main component drawn
[4] = compound: COc1cc([C@@H]2c3cc4c(cc3[C@@H](O[C@@H]3O[C@@H]5CO[C@@H](C)O[C@H]5[C@H](O)[C@H]3O)[C@H]3COC(=O)[C@H]23)OCO4)cc(OC)c1O [Etoposide]
[5] = compound: N.N.Cl[Pt]Cl [Cisplatin]
[6] = compound: CC[C@@]1(O)C(=O)OCc2c1cc1n(c2=O)Cc2cc3c(CN(C)C)c(O)ccc3nc2-1 [Topotecan]
[7] = compound: CCC(=O)Nc1ccc(C(=O)Nc2ccc(Nc3ncc4c(n3)N(C)c3ccc(C)cc3C(=O)N4C)cc2)cc1 [FMF-03-145-1]
[8] = compound: COc1cccc(OCCCN)c1-c1cc(Nc2cnc(C#N)cn2)n[nH]1
[9] = compound: CO[C@H]1C[C@@H]2CC[C@@H](C)[C@@](O)(O2)C(=O)C(=O)N2CCCC[C@H]2C(=O)O[C@H]([C@H](C)C[C@@H]2CC[C@@H](OCCO)[C@H](OC)C2)CC(=O)[C@H](C)/C=C(\C)[C@@H](O)[C@@H](OC)C(=O)[C@H](C)C[C@H](C)/C=C/C=C/C=C/1C [Everolimus]
[10] = compound: T1, YKL-5-124
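Wherever GR50, 72 h is given: breast cancer and non-malignant breast epithelial cell lines, Deep Dye Drop or Dye Drop imaging, nine half-log doses, GR normalized to time-zero plates and DMSO-only controls.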

Row | Cell Line | GR value ([1]; 0.001 µM) [GR] | GR value ([1]; 0.003162 µM) [GR] | GR value ([1]; 0.01 µM) [GR] | GR value ([1]; 0.03162 µM) [GR] | GR value ([1]; 0.1 µM) [GR] | GR value ([1]; 0.3162 µM) [GR] | GR value ([1]; 1 µM) [GR] | GR value ([1]; 3.162 µM) [GR] | GR value ([1]; 10 µM) [GR] | GR value ([2]; 0.0001 µM) [GR] | GR value ([2]; 0.0003162 µM) [GR] | GR value ([2]; 0.001 µM) [GR] | GR value ([2]; 0.003162 µM) [GR] | GR value ([2]; 0.01 µM) [GR] | GR value ([2]; 0.03162 µM) [GR] | GR value ([2]; 0.1 µM) [GR] | GR value ([2]; 0.3162 µM) [GR] | GR value ([2]; 1 µM) [GR] | GR50, 72 h [3] [µM] | GR50, 72 h [4] [µM] | GR50, 72 h [5] [µM] | GR50, 72 h [6] [µM] | GR50, 72 h [7] [µM] | GR50, 72 h [8] [µM] | GR50, 72 h [9] [µM] | GR50, 72 h [10] [µM]
1 | CAMA1 | 0.224 | 0.229 | 0.0682 | 0.0899 | 0.0659 | -0.0547 | 0.0323 | 0.0041 | -0.591 | 1.2 | 0.94 | 0.893 | 1.16 | 1.26 | 0.867 | 0.777 | -0.0843 | -0.403 | 1.69 | 0.155 | 0.919 | 0.00321 | 0.00649 | 0.00063 |  | 
2 | ZR751 | 0.57 | 0.342 | 0.325 | 0.282 | 0.254 | 0.238 | 0.239 | 0.223 | 0.128 | 1.06 | 0.851 | 0.958 | 0.936 | 1.03 | 0.969 | 0.991 | 0.856 | -0.208 |  |  |  |  | 0.00573 | 0.0012 | < 0.001 | 0.0019
3 | HTERT_HME1 | 0.41 | 0.245 | 0.16 | 0.177 | 0.0758 | 0.0849 | 0.0535 | -0.036 | -0.144 | 0.956 | 0.956 | 0.939 | 1.03 | 1.11 | 1.02 | 0.889 | 0.179 | -0.207 | 0.207 | 0.138 | 1.12 | 0.00727 | 0.00584 | 0.000593 |  | < 0.001
4 | CAL851 | 0.137 | -0.128 | -0.137 | -0.128 | -0.177 | -0.275 | -0.172 | -0.25 | -0.561 | 1.12 | 0.975 | 0.997 | 0.889 | 0.924 | 0.717 | 0.322 | 0.0707 | -0.218 | 0.453 | 0.416 | 1.03 | 0.0158 | 0.00449 | 0.000351 | 0.00155 | 
5 | MDAMB361 | 0.264 | 0.0247 | -0.0567 | -0.0052 | -0.0751 | -0.226 | -0.188 | -0.358 | -0.881 | 0.955 | 0.912 | 0.758 | 0.849 | 1.06 | 0.299 | -0.82 | -0.756 | -0.539 | 0.758 | 1.19 | 2.63 | 0.0114 | 0.00904 | 0.000459 | < 0.001 | < 0.001
6 | PDX1258 | 0.686 | 0.363 | 0.231 | 0.0382 | 0.0596 | -0.0277 | -0.147 | -0.294 | -0.519 | 0.889 | 1.04 | 0.96 | 1.07 | 1.07 | 0.765 | -0.303 | -0.601 | -0.509 | 0.783 | 0.317 | 2.56 | 0.0135 |  | 0.000103 | > 10 | 0.00166
7 | EFM19 | 0.518 | 0.329 | 0.259 | 0.219 | 0.134 | 0.178 | 0.106 | 0.149 | 0.0614 | 0.996 | 0.978 | 0.907 | 0.911 | 1.07 | 0.896 | 1 | 0.801 | -0.59 |  |  |  |  | 0.00827 |  | < 0.001 | < 0.001
8 | MCF12A | 0.573 | 0.316 | 0.235 | 0.17 | 0.135 | 0.153 | 0.131 | 0.107 | 0.0273 | 0.942 | 1.02 | 1 | 0.929 | 1.01 | 0.967 | 1 | 0.894 | -0.0356 |  |  |  |  | 0.00914 | 0.000725 | > 10 | 0.0013
9 | MDAMB453 | 0.574 | 0.333 | 0.209 | 0.209 | 0.143 | 0.0956 | 0.128 | 0.143 | -0.503 | 1.1 | 0.965 | 0.877 | 0.996 | 0.851 | 0.38 | -0.333 | -0.27 | -0.266 | 1.31 | 0.383 | 3.4 | 0.00669 | 0.00648 | 0.0005 |  | < 0.001
10 | HCC38 | 0.436 | 0.282 | 0.219 | 0.111 | 0.0509 | -0.0003 | -0.0242 | -0.079 | -0.393 | 0.922 | 1.03 | 1.04 | 0.998 | 1.07 | 1.02 | 0.765 | 0.0587 | -0.335 | 0.199 | 0.334 | 0.993 | 0.00681 | 0.00507 | 0.000505 |  | < 0.001
11 | SKBR3 | 0.455 | 0.198 | 0.164 | 0.137 | 0.102 | -0.123 | 0.0239 | -0.0117 | -0.572 | 1.03 | 0.963 | 0.975 | 0.961 | 1.07 | 0.411 | -0.26 | -0.481 | -0.584 | 1.05 | 0.398 | 5.11 | 0.0165 | 0.00508 | 0.000441 | < 0.001 | < 0.001
12 | MDAMB468 | 0.23 | 0.077 | 0 | -0.101 | -0.149 | -0.177 | -0.217 | -0.309 | -0.549 | 1.02 | 1 | 0.926 | 1.04 | 0.906 | 0.636 | 0.082 | -0.19 | -0.188 | 0.823 | 0.488 | 1.26 | 0.0158 | 0.00536 |  | > 10 | < 0.001
13 | MCF10A (GM) | 0.327 | 0.118 | 0.0291 | 0.0039 | 0.0039 | -0.0162 | -0.0398 | -0.0468 | -0.141 | 1 | 1 | 0.992 | 0.983 | 0.997 | 0.974 | 0.926 | 0.707 | -0.276 |  |  |  |  | 0.00563 | 0.0122 |  | < 0.001
